Reference: the supplement of paper PMC10307832

Key:
Assay in all cases: relative viability (nuclei count vs DMSO), 5 days (fraction); higher = more cells survive
Tipifarnib + Luminespib = compound: Cn1cncc1[C@@](N)(c1ccc(Cl)cc1)c1ccc2c(c1)c(-c1cccc(Cl)c1)cc(=O)n2C [Tipifarnib] + CCNC(=O)c1noc(-c2cc(C(C)C)c(O)cc2O)c1-c1ccc(CN2CCOCC2)cc1 [Luminespib] (partner 0.01 µM)
Method in brief: (§1)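 Lung cancer cell lines in 1536-well plates were dosed by pin tool the day after seeding, either with one drug alone or with a fixed anchor-drug dose plus five library-drug doses (not always all listed) in √10 steps. After 5 days, cells were fixed and their nuclei stained in one step (final 0.05% Triton X-100, 1% formaldehyde, 1 ug/ml Hoechst), then counted on 4× images. Relative viability is the nuclei count in treated wells divided by that in vehicle wells. Values are medians of duplicate plates.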

Tipifarnib + Foretinib = compound: Cn1cncc1[C@@](N)(c1ccc(Cl)cc1)c1ccc2c(c1)c(-c1cccc(Cl)c1)cc(=O)n2C [Tipifarnib] + COc1cc2c(Oc3ccc(NC(=O)C4(C(=O)Nc5ccc(F)cc5)CC4)cc3F)ccnc2cc1OCCCN1CCOCC1 [Foretinib] (partner 0.25 µM)
Method in brief: as §1

Tipifarnib + Dasatinib = compound: Cn1cncc1[C@@](N)(c1ccc(Cl)cc1)c1ccc2c(c1)c(-c1cccc(Cl)c1)cc(=O)n2C [Tipifarnib] + Cc1nc(Nc2ncc(C(=O)Nc3c(C)cccc3Cl)s2)cc(N2CCN(CCO)CC2)n1 [Dasatinib] (partner 0.075 µM)
Method in brief: as §1

Tipifarnib + Decitabine = compound: Cn1cncc1[C@@](N)(c1ccc(Cl)cc1)c1ccc2c(c1)c(-c1cccc(Cl)c1)cc(=O)n2C [Tipifarnib] + Nc1ncn([C@H]2C[C@H](O)[C@@H](CO)O2)c(=O)n1 [Decitabine] (partner 2 µM)
Method in brief: as §1

Cell Line | relative viability (Tipifarnib + Luminespib; first compound 0.01 µM) | relative viability (Tipifarnib + Luminespib; first compound 0.03162 µM) | relative viability (Tipifarnib + Luminespib; first compound 0.1 µM) | relative viability (Tipifarnib + Luminespib; first compound 0.3162 µM) | relative viability (Tipifarnib + Luminespib; first compound 1 µM) | relative viability (Tipifarnib + Foretinib; first compound 0.01 µM) | relative viability (Tipifarnib + Foretinib; first compound 0.03162 µM) | relative viability (Tipifarnib + Foretinib; first compound 0.1 µM) | relative viability (Tipifarnib + Foretinib; first compound 0.3162 µM) | relative viability (Tipifarnib + Foretinib; first compound 1 µM) | relative viability (Tipifarnib + Dasatinib; first compound 0.01 µM) | relative viability (Tipifarnib + Dasatinib; first compound 0.03162 µM) | relative viability (Tipifarnib + Dasatinib; first compound 0.1 µM) | relative viability (Tipifarnib + Dasatinib; first compound 0.3162 µM) | relative viability (Tipifarnib + Dasatinib; first compound 1 µM) | relative viability (Tipifarnib + Decitabine; first compound 0.01 µM) | relative viability (Tipifarnib + Decitabine; first compound 0.03162 µM) | relative viability (Tipifarnib + Decitabine; first compound 0.1 µM) | relative viability (Tipifarnib + Decitabine; first compound 0.3162 µM) | relative viability (Tipifarnib + Decitabine; first compound 1 µM)
NCI-H1395 | 0.776 | 0.72 | 0.711 | 0.446 | 0.452 | 0.986 | 0.956 | 0.814 | 0.705 | 0.77 | 0.421 | 0.348 | 0.342 | 0.34 | 0.381 | 0.7 | 0.674 | 0.59 | 0.626 | 0.654
NCI-H1437 | 1.25 | 1.17 | 1.15 | 0.913 | 1.07 | 1.32 | 1.29 | 1.38 | 0.955 | 1.29 | 0.446 | 0.482 | 0.452 | 0.416 | 0.214 | 0.597 | 0.618 | 0.613 | 0.635 | 0.593
NCI-H1650 | 0.19 | 0.208 | 0.189 | 0.203 | 0.184 | 0.766 | 0.633 | 0.668 | 0.424 | 0.554 | 0.274 | 0.254 | 0.24 | 0.22 | 0.202 | 0.307 | 0.298 | 0.309 | 0.357 | 0.304
NCI-H1651 | 0.921 | 0.934 | 0.797 | 0.684 | 0.753 | 0.833 | 0.79 | 0.85 | 0.717 | 0.831 | 0.474 | 0.209 | 0.389 | 0.363 | 0.196 | 0.667 | 0.597 | 0.658 | 0.761 | 0.421
NCI-H1666 | 1 | 0.92 | 0.94 | 0.842 | 0.806 | 0.923 | 0.888 | 0.866 | 0.873 | 0.748 | 0.791 | 0.779 | 0.785 | 0.748 | 0.605 | 0.698 | 0.739 | 0.768 | 0.598 | 0.571
NCI-H1734 | 0.198 | 0.147 | 0.171 | 0.168 | 0.164 | 0.902 | 0.832 | 0.729 | 0.458 | 0.487 | 0.465 | 0.389 | 0.347 | 0.274 | 0.22 | 0.565 | 0.485 | 0.557 | 0.434 | 0.369
NCI-H1755 | 0.516 | 0.475 | 0.516 | 0.545 | 0.201 | 0.88 | 0.889 | 0.908 | 0.849 | 0.456 | 0.477 | 0.39 | 0.365 | 0.348 | 0.271 | 0.726 | 0.761 | 0.739 | 0.746 | 0.741
NCI-H1793 | 0.23 | 0.173 | 0.196 | 0.134 | 0.138 | 0.626 | 0.577 | 0.616 | 0.44 | 0.411 | 0.455 | 0.43 | 0.34 | 0.246 | 0.243 | 0.555 | 0.427 | 0.374 | 0.338 | 0.365
NCI-H1915 | 0.681 | 0.638 | 0.48 | 0.44 | 0.428 | 1.01 | 0.816 | 0.606 | 0.593 | 0.577 | 0.241 | 0.182 | 0.201 | 0.175 | 0.16 | 0.272 | 0.245 | 0.284 | 0.232 | 0.257
NCI-H1944 | 0.641 | 0.657 | 0.363 | 0.372 | 0.393 | 0.842 | 0.803 | 0.561 | 0.472 | 0.459 | 0.213 | 0.173 | 0.161 | 0.17 | 0.169 | 0.421 | 0.452 | 0.413 | 0.346 | 0.404
NCI-H1975 | 0.235 | 0.282 | 0.163 | 0.172 | 0.106 | 0.936 | 0.967 | 0.939 | 0.604 | 0.568 | 0.383 | 0.356 | 0.412 | 0.238 | 0.185 | 0.425 | 0.419 | 0.37 | 0.317 | 0.317
NCI-H1993 | 0.697 | 0.644 | 0.57 | 0.504 | 0.481 | 0.832 | 0.716 | 0.589 | 0.605 | 0.548 | 0.596 | 0.515 | 0.495 | 0.527 | 0.516 | 0.666 | 0.551 | 0.579 | 0.528 | 0.545
NCI-H2009 | 0.955 | 0.827 | 0.786 | 0.528 | 0.599 | 1.3 | 1.11 | 0.84 | 0.645 | 0.7 | 0.31 | 0.232 | 0.217 | 0.211 | 0.21 | 0.382 | 0.378 | 0.362 | 0.357 | 0.323
NCI-H2023 | 0.749 | 0.486 | 0.386 | 0.337 | 0.286 | 0.958 | 0.7 | 0.609 | 0.336 | 0.505 | 0.561 | 0.427 | 0.325 | 0.299 | 0.217 | 0.219 | 0.2 | 0.215 | 0.176 | 0.165
NCI-H2085 | 0.406 | 0.317 | 0.34 | 0.295 | 0.34 | 0.853 | 0.6 | 0.493 | 0.497 | 0.589 | 0.296 | 0.264 | 0.262 | 0.25 | 0.288 | 0.558 | 0.59 | 0.519 | 0.493 | 0.536
NCI-H2087 | 0.185 | 0.154 | 0.165 | 0.141 | 0.152 | 0.999 | 0.371 | 0.333 | 0.292 | 0.3 | 0.764 | 0.405 | 0.289 | 0.264 | 0.21 | 0.348 | 0.262 | 0.259 | 0.205 | 0.206
